Reference: US6762178B2, “Acetylenic aryl sulfonamide and phosphinic acid amide hydroxamic acid TACE inhibitors” (Wyeth Holdings Corporation, priority 1999, dated 2004)

Key:
[1] = target: TNF-α converting enzyme (TACE) (Homo sapiens, UniProt P78536); assay: TACE inhibition (fluorescent peptidyl substrate); type: biochemical
Procedure: Using 96-well black microtiter plates, each well receives a solution composed of 10 μL TACE (final concentration 1 μg/mL), 70 μL Tris buffer, pH 7.4 containing 10% glycerol (final concentration 10 mM), and 10 μL of test compound solution in DMSO (final concentration 1 μM, DMSO concentration <1%) and incubated for 10 minutes at room temperature. The reaction is initiated by addition of a fluorescent peptidyl substrate (final concentration 100 μM) to each well and then shaking on a shaker for 5 sec.
The reaction is read (excitation 340 nm, emission 420 nm) for 10 min. and the increase in fluorescence over time is plotted as a linear line. The slope of the line is calculated and represents the reaction rate.
(§1) The mean (x±sem) of the control rate is calculated and compared for statistical significance (p<0.05) with drug-treated rates using Dunnett's multiple comparison test.

THP-1 cells = assay: THP-1 soluble protein assay; type: cell-based, human; details: LPS-stimulated THP-1 cells
Description: In addition, non-stimulated THP-1 cells shed both the p75/80 and the p55/60 receptors over time. The release of membrane bound TNF-α and possibly TNF-R p75/80 and TNF-R p55/60, but not IL-8, is mediated by an enzyme called TNF-a converting enzyme or TACE.
THP-1 cells (from ATCC) are a human monocytic cell line which were obtained from the peripheral blood of a person with acute monocytic leukemia. They can be grown in culture and differentiated into macrophage like cells by stimulation with mitogens.
Each vial of cells are cultured for about two weeks prior to being used for an assay and then are used for only 4 to 6 weeks to screen compounds.
Cell exposure to DMSO was limited to 0.1% final concentration. […] Compounds can be evaluated for their effect on basal (non-stimulated) shedding of the receptors by replacing the LPS with […] of THP-1 media. Plates are placed into an incubator set at 5% CO2 and at 37° C. […]
In addition, at the 24 hours timepoint, and the cells for each treatment group are collected by resuspension in 500 μl/well of THP-1 media and transferred into a FACS tube. […] The samples are run on a Becton Dickinson FaxCaliber FLOW cytometry machine and the amount of dye taken up by each cell is measured in the high red wavelength (FL3). […] The percent of live cells is calculated by the number of cells not stained with PI, divided by the total number of cells in the sample. […]

MMP-13 = MMP-13 (Homo sapiens, UniProt P45452); assay: MMP-13 inhibition (thiopeptide or fluorescent peptide substrate); type: biochemical
Procedure: (§2) The enzyme activity is measured by the rate of the color increase. The thiopeptide substrate is made up fresh as a 20 mM stock in 100% DMSO and the DTNB is dissolved in 100% DMSO as a 100 mM stock and stored in the dark at room temperature. Both the substrate and DTNB are diluted together to 1 mM with substrate buffer (50 mM HEPES pH 7.5, 5 mM CaCl2) before use. The stock of enzyme is diluted with buffer (50 mM HEPES, pH 7.5, 5 mM CaCl2, 0.02% Brij) to the desired final concentration.
(§3) Alternatively, a fluorescent peptide substrate is used. In this test procedure, the peptide substrate contains a fluorescent group and a quenching group. Upon cleavage of the substrate by an MMP, the fluorescence that is generated is quantitated on the fluorescence plate reader. The assay is run in HCBC assay buffer (50 mM HEPES, pH 7.0, 5 mM Ca^+2, 0.02% Brij, 0.5% Cysteine), with human recombinant MMP-1, MMP-9, or MMP-13. The substrate is dissolved in methanol and stored frozen in 1 mM aliquots. For the assay, substrate and enzymes are diluted in HCBC buffer to the desired concentrations. […]
as §1, with “For either the thiopeptide or fluorescent peptide test procedures, the slope of the line is calculated and represents the reaction rate. […] The” for “The”

MMP-1 = target: T1, MMP-1 (Homo sapiens, UniProt P03956); assay: MMP-1 inhibition (thiopeptide or fluorescent peptide substrate); type: biochemical
T1 sequence (P03956 100-469): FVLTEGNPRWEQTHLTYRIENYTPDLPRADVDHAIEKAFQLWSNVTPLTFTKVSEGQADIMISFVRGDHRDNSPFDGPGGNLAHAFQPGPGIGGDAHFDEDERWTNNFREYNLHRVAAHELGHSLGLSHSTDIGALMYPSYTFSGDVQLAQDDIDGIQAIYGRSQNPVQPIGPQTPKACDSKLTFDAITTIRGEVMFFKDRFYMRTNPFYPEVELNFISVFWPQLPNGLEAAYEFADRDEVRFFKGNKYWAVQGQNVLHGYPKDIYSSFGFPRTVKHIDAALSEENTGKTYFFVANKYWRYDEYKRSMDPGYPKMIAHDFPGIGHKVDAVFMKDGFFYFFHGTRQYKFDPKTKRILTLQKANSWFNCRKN
Procedure: as §2, §3
as §1, with “For either the thiopeptide or fluorescent peptide test procedures, the slope of the line is calculated and represents the reaction rate. […] The” for “The”

MMP-9 = MMP-9 (Homo sapiens, UniProt P14780); assay: MMP-9 inhibition (thiopeptide or fluorescent peptide substrate); type: biochemical
Procedure: as §2, §3
as §1, with “For either the thiopeptide or fluorescent peptide test procedures, the slope of the line is calculated and represents the reaction rate. […] The” for “The”

Chain of TNF-α converting enzyme (TACE) (P78536 215-824, species assumed): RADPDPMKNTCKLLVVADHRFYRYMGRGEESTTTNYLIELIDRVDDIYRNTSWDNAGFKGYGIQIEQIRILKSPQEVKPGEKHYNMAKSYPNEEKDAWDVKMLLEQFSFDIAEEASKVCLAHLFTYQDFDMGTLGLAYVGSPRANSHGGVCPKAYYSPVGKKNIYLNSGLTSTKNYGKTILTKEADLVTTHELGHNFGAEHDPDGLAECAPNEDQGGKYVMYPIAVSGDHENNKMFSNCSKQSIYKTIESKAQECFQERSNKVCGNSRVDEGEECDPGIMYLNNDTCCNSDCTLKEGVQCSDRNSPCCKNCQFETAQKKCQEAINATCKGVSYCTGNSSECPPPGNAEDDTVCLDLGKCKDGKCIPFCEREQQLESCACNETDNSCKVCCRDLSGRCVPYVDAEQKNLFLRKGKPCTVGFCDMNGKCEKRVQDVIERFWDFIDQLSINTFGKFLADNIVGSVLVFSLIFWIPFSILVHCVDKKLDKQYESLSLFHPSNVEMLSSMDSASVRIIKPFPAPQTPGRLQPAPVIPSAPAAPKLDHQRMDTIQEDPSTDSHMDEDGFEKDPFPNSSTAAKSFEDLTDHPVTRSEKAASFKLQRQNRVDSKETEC
Chain of MMP-9 (P14780 94-707): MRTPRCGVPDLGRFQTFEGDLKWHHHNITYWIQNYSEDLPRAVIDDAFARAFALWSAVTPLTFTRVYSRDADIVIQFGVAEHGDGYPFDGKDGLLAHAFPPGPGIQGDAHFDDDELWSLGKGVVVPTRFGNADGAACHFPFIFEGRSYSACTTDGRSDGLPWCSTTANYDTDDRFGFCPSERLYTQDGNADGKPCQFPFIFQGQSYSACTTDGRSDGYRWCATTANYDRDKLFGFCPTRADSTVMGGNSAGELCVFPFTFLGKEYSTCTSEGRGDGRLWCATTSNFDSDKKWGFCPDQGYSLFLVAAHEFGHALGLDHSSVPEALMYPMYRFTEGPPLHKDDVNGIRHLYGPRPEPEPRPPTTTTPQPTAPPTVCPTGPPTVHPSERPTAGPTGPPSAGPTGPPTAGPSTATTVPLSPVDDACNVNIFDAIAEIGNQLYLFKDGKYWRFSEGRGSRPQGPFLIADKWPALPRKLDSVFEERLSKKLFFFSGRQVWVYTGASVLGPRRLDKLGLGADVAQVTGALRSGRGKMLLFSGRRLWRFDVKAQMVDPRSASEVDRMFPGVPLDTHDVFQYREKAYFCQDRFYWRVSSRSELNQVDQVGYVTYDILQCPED

5-Bromo-2-[(4-butoxy-benzenesulfonyl)-methyl-amino]-N-hydroxy-3-methyl-benzamide [Example 39]
IC50 [1]: 67 nM | THP % Inhib. @ 3 μM (THP-1 cells): 0% | IC50 (MMP-13): 68 nM | IC50 (MMP-1): 2490 nM | IC50 (MMP-9): 21 nM
